Source: patent US20230054333A1, “Herbicide Combinations Comprising Glufosinate and Saflufenacil” (BASF SE, priority 2020, published 2023)

Legend:
Conditions in all cases: visual scale 0 to 100, mean of three replications
Roundup Ready Soybean = assay: Greenhouse post emergence treatment, visual herbicidal activity against Roundup Ready soybean; format: in vivo, Glycine max
Description: (§1) Synergism can be described as an interaction where the combined effect of two or more compounds is greater than the sum of the individual effects of each of the compounds. The presence of a synergistic effect in terms of percent control, between two mixing partners (X and Y) can be calculated using the Colby equation (Colby, S. R., 1967, Calculating Synergistic and Antagonistic Responses in Herbicide Combinations, Weeds, 15, 21-22):
(§2) When the observed combined control effect is greater than the expected (calculated) combined control effect (E), then the combined effect is synergistic.
(§3) Weeds included Palmer aamaranth (Amaranthus palmen) and crop plants included soybean (Glycine max) with glufosinate tolerance (Liberty Link, BASF) or glyphosate tolerance (Roundup Ready, Bayer). However, the herbicidal effect afforded by the compounds, mixtures or compositions is not limited to these species. The analysis of synergism or antagonism between the mixtures or compositions was determined using Colby's equation.
(§4) Pots with 0.3 L of volume were filled with soil (SunGro Horticulture, Agawam, MA 01001) to grow one plant per pot in the greenhouse until the desired developmental stage. […] During this time, the plants were tended, and their response to the individual treatments was evaluated. […]

LibertyLink Soybean = assay: Greenhouse post emergence treatment, visual herbicidal activity against LibertyLink soybean; format: in vivo, Glycine max
Description: as §1, §2, §3, §4

Palmer amaranth = assay: Greenhouse post emergence treatment, visual herbicidal activity against Palmer amaranth; format: in vivo, Amaranthus palmeri
Description: as §1, §2, §3, §4

Structure (SMILES)	Herbicidal activity against Roundup Ready Soybean (2 DAT) Found (Roundup Ready Soybean; Glufosinate 280 g ai/ha)	Herbicidal activity against LibertyLink Soybean (2 DAT) Found (LibertyLink Soybean; Glufosinate 280 g ai/ha)	Herbicidal activity against Palmer amaranth (2 DAT) Found (Palmer amaranth; Glufosinate 280 g ai/ha)	Herbicidal activity against Roundup Ready Soybean (2 DAT) Found (Roundup Ready Soybean; Saflufenacil 1 g ai/ha)	Herbicidal activity against LibertyLink Soybean (2 DAT) Found (LibertyLink Soybean; Saflufenacil 1 g ai/ha)	Herbicidal activity against Palmer amaranth (2 DAT) Found (Palmer amaranth; Saflufenacil 1 g ai/ha)
CP(=O)(O)CCC(N)C(=O)O (racemic) [Glufosinate, (2RS)-2-amino-4-[hydroxy(methyl)phosphinoyl]butyric acid]	35	5	20	–	–	–
CC(C)N(C)S(=O)(=O)NC(=O)c1cc(-n2c(=O)cc(C(F)(F)F)n(C)c2=O)c(F)cc1Cl [Saflufenacil]	–	–	–	0	1	4
